Results: patent publication US20040014215A1, “Synchronised arabidopsis cell suspensions and uses thereof” (priority 2000, published 2004)

Experiments:
CDK-b2 = experiment: Northern expression analysis after aphidicolin synchronisation of MM1 (maximum signal = 100%); type: cell-based, Arabidopsis thaliana
Experimental: (§1) was analysed following the expression level of known cell cycle regulated genes. Synchronisation was performed as described in Example 2A, with the exception that two 7-day old cultures of the weekly sub-cultured cell suspension (210 ml each) were combined. 40 ml of combined culture was transferred into 200 ml of fresh MSS-medium in each of 10 separate flasks. After incubation for 24 hrs under conditions as described in Example 1, in the presence of 4.16 μg/ml aphidicolin, cells from 5 pooled flasks were washed through a nylon net (mesh size 47 μm) and washed with 2 litre MSS medium and shaken vigorously to remove the aphidicolin. Cells were transferred into a 50 ml plastic tube, washed again with MSS medium and centrifuged at 2500 rpm for 1 min (1075 rcf). Cells were resuspended and combined with the cells from the other 5 flasks similarly washed in a total volume of 300 ml fresh MSS-medium. 30 ml of this cell suspension was then added to 200 ml fresh MSS-medium in each of 10 separate flasks.
(§2) 1) 25 ml for Northern blot (transferred into 50 ml plastic tube, centrifuged at 2500 rpm for 1 min, the supernatant discarded, and the cell pellet shock-frozen in liquid nitrogen before storing in −80° C. freezer)
(§3) Samples were collected at the time point indicated (time of removal of aphidicolin equals time point 0 hrs) and were analysed for expression of the following genes by Northern blot:
(§4) For each probe the maximum hybridisation signal obtained was defined as 100%.

CycD3 = experiment: as above; type: cell-based, Arabidopsis thaliana
Experimental: as §1, §2, §3, §4

[1] = 0 hrs after aphidicolin removal
[2] = 2 hrs after aphidicolin removal
[3] = 4 hrs after aphidicolin removal
[4] = 6 hrs after aphidicolin removal
[5] = 8 hrs after aphidicolin removal
[6] = 10 hrs after aphidicolin removal
[7] = 12 hrs after aphidicolin removal
[8] = 14 hrs after aphidicolin removal
[9] = 16 hrs after aphidicolin removal
[10] = 18 hrs after aphidicolin removal
[11] = 20 hrs after aphidicolin removal
[12] = 22 hrs after aphidicolin removal
[13] = 24 hrs after aphidicolin removal
[14] = 26 hrs after aphidicolin removal
[15] = 28 hrs after aphidicolin removal
[16] = 30 hrs after aphidicolin removal

C[C@@]1(CO)[C@H](O)CC[C@@]2(C)[C@H]1CC[C@H]1C[C@@H]3C[C@@]12CC[C@]3(O)CO [aphidicolin]
CDK-b2 % (CDK-b2; [1]): 7.78% | CDK-b2 Band intensity (CDK-b2; [1]): 1084 | CDK-b2 % (CDK-b2; [2]): 12.90% | CDK-b2 Band intensity (CDK-b2; [2]): 1796 | CDK-b2 % (CDK-b2; [3]): 8.22% | CDK-b2 Band intensity (CDK-b2; [3]): 1144 | CDK-b2 % (CDK-b2; [4]): 12.09% | CDK-b2 Band intensity (CDK-b2; [4]): 1683 | CDK-b2 % (CDK-b2; [5]): 28.47% | CDK-b2 Band intensity (CDK-b2; [5]): 3963 | CDK-b2 % (CDK-b2; [6]): 49.90% | CDK-b2 Band intensity (CDK-b2; [6]): 6947 | CDK-b2 % (CDK-b2; [7]): 87.45% | CDK-b2 Band intensity (CDK-b2; [7]): 12174 | CDK-b2 % (CDK-b2; [8]): 100% | CDK-b2 Band intensity (CDK-b2; [8]): 13921 | CDK-b2 % (CDK-b2; [9]): 55.84% | CDK-b2 Band intensity (CDK-b2; [9]): 7774 | CDK-b2 % (CDK-b2; [10]): 67.57% | CDK-b2 Band intensity (CDK-b2; [10]): 9407 | CDK-b2 % (CDK-b2; [11]): 47.80% | CDK-b2 Band intensity (CDK-b2; [11]): 6654 | CDK-b2 % (CDK-b2; [12]): 22.78% | CDK-b2 Band intensity (CDK-b2; [12]): 3172 | CDK-b2 % (CDK-b2; [13]): 13.73% | CDK-b2 Band intensity (CDK-b2; [13]): 1912 | CDK-b2 % (CDK-b2; [14]): 22.86% | CDK-b2 Band intensity (CDK-b2; [14]): 3183 | CDK-b2 % (CDK-b2; [15]): 18.55% | CDK-b2 Band intensity (CDK-b2; [15]): 2583 | CDK-b2 % (CDK-b2; [16]): 22.19% | CDK-b2 Band intensity (CDK-b2; [16]): 3089 | CycD3 % (CycD3; [1]): 12.10% | CycD3 Band intensity (CycD3; [1]): 465 | CycD3 % (CycD3; [2]): 14.46% | CycD3 Band intensity (CycD3; [2]): 555 | CycD3 % (CycD3; [3]): 43.55% | CycD3 Band intensity (CycD3; [3]): 1674 | CycD3 % (CycD3; [4]): 76.31% | CycD3 Band intensity (CycD3; [4]): 2933 | CycD3 % (CycD3; [5]): 72.80% | CycD3 Band intensity (CycD3; [5]): 2798 | CycD3 % (CycD3; [6]): 77.13% | CycD3 Band intensity (CycD3; [6]): 2964 | CycD3 % (CycD3; [7]): 85.55% | CycD3 Band intensity (CycD3; [7]): 3288 | CycD3 % (CycD3; [8]): 100.0% | CycD3 Band intensity (CycD3; [8]): 3844 | CycD3 % (CycD3; [9]): 79.41% | CycD3 Band intensity (CycD3; [9]): 3052 | CycD3 % (CycD3; [10]): 79.09% | CycD3 Band intensity (CycD3; [10]): 3040 | CycD3 % (CycD3; [11]): 94.06% | CycD3 Band intensity (CycD3; [11]): 3615 | CycD3 % (CycD3; [12]): 59.40% | CycD3 Band intensity (CycD3; [12]): 2283 | CycD3 % (CycD3; [13]): 26.53% | CycD3 Band intensity (CycD3; [13]): 1019 | CycD3 % (CycD3; [14]): 51.71% | CycD3 Band intensity (CycD3; [14]): 1987 | CycD3 % (CycD3; [15]): 64.80% | CycD3 Band intensity (CycD3; [15]): 2490 | CycD3 % (CycD3; [16]): 70.93% | CycD3 Band intensity (CycD3; [16]): 2726
